Reference: ChEMBL document CHEMBL1687817, “Tigecycline population pharmacokinetics in patients with community- or hospital-acquired pneumonia” (Antimicrob Agents Chemother, 2010)

Tests used:
Format in all cases: ADME, organism-based
[1] = Volume of distribution in central compartment in patient with community or hospital-acquired pneumonia at […], iv loading dose followed by […] administered every 12 hrs; details: human, in vivo, read-out: Vc
Homo sapiens [2] = assay: Volume of distribution at steady state in patient with community or hospital-acquired pneumonia at […], iv loading dose followed by […] administered every 12 hrs; details: in vivo
[3] = Clearance in patient with community or hospital-acquired pneumonia at […], iv loading dose followed by […] administered every 12 hrs; details: human, in vivo
Homo sapiens [4] = assay: Distributional clearance in patient with community or hospital-acquired pneumonia at […], iv loading dose followed by […] administered every 12 hrs; details: in vivo

Vd [1]: 65.2 L
Vdss (Homo sapiens [2]): 398 L
clearance [3]: 320 mL/min
CLd (Homo sapiens [4]): 85.1 L/h
SMILES: CN(C)c1cc(NC(=O)CNC(C)(C)C)c(O)c2c1C[C@H]1C[C@H]3[C@H](N(C)C)C(O)=C(C(N)=O)C(=O)[C@@]3(O)C(O)=C1C2=O [TIGECYCLINE]
